Data on 49 compounds can be found in US9743665B2, “Fungicidal 3-{phenyl[heterocyclylmethoxy)imino]methyl}-oxadiazolone derivatives” (BAYER CROPSCIENCE AKTIENGESELLSCHAFT, priority 2013, dated 2017).

In general, chromatographic logP refers to a lipophilicity value derived from retention on a column. A higher chromatographic logP goes with a more lipophilic compound.

Read-outs that look alike come from different tables or passages of the source. Marks after values point to notes of the source that are not given here.

The test system of data set [1] is Phytophthora infestans. Type of data set: in vivo. The note with it: tomato plants, preventive spray, 500 ppm of active ingredient, evaluated 5 days after inoculation.
The conditions of data set [2]: pH 2.7.
Method: (§1) Measurement of IogP values was performed according EEC directive 79/831 Annex V.A8 by HPLC (High Performance Liquid Chromatography) on reversed phase columns with the following methods:
(§2) Measurement of LC-MS was done at pH 2.7 with 0.1% formic acid in water and with acetonitrile (contains 0.1% formic acid) as eluent with a linear gradient from 10% acetonitrile to 95% acetonitrile.
(§3) Calibration was done with not branched alkan2-ones (with 3 to 16 carbon atoms) with known logP-values (measurement of logP values using retention times with linear interpolation between successive alkanones). lambda-maX-values were determined using UV-spectra from 200 nm to 400 nm and the peak values of the chromatographic signals.
The conditions of data set [3]: for chromatographic logP: pH 2.7; for LogP: Table 1, formula (I), method [a]: HPLC/LC-MS at pH 2.7, 0.1% formic acid in water / acetonitrile gradient.
Method: as §1, §2, §3
In data set [4] the test system is Plasmopara viticola. The data set is described as follows: Example J: Plasmopara test (grapevines)/preventive. It counts as in vivo. The note with it: grapevine plants, preventive spray, 10 ppm of active ingredient, evaluated 6 days after inoculation. Here is the method:
Example J: Plasmopara Test (Grapevines)/Preventive
To produce a suitable preparation of active compound, 1 part by weight of active compound is mixed with the stated amounts of solvent and emulsifier, and the concentrate is diluted with water to the desired concentration.
To test for preventive activity, young plants are sprayed with the preparation of active compound at the stated rate of application. After the spray coating has dried on, the plants are inoculated with an aqueous spore suspension of Plasmopara viticola and then remain for 1 day in an incubation cabinet at approximately 20° C. and a relative atmospheric humidity of 100%. The plant is subsequently placed for 4 days in a greenhouse at approximately 21° C. and a relative atmospheric humidity of approximately 90%. The plants are then misted and placed for 1 day in an incubation cabinet.
The test is evaluated 6 days after the inoculation. 0% means an efficacy which corresponds to that of the untreated control, while an efficacy of 100% means that no disease is observed.

`C#CCCOC(=O)Nc1csc(CO/N=C(/c2ccccc2)c2noc(=O)n2C)n1` [Example 1]: the “% efficacy” value in data set [1] is given as 98%. The LogP in data set [2] is 2.97^[a].

With `Cn1oc(=O)nc1/C(=N\OCn1ccc([N+](=O)[O-])n1)c1ccccc1` [Example 2, 2-methyl-3-[(Z)-{[(3-nitro-1H-pyrazol-1-yl)methoxy]imino}(phenyl)methyl]-1,2,4-oxadiazol-5(2H)-one], the chromatographic logP in data set [3] worked out at 2.1.

In the case of `Cn1c(C(=NOCc2nc(Br)cs2)c2ccccc2)noc1=O` [Example 3, 3-[{[(4-bromo-1,3-thiazol-2-yl)methoxy]imino}(phenyl)methyl]-4-methyl-1,2,4-oxadiazol-5(4H)-one], the chromatographic logP in data set [3] was found to be 3.25.

Regarding `Cn1oc(=O)nc1/C(=N\OCc1nc(C#CC2CC2)cs1)c1ccccc1` [Example 4, 3-[(Z)-({[4-(cyclopropylethynyl)-1,3-thiazol-2-yl]methoxy}imino)(phenyl)methyl]-2-methyl-1,2,4-oxadiazol-5(2H)-one], the chromatographic logP in data set [3] came out at 3.04. The “% efficacy” value in data set [1] is 100%.

For `Cn1oc(=O)nc1/C(=N\OCn1ccc(N)n1)c1ccccc1` [Example 8, 3-[(Z)-{[(3-amino-1H-pyrazol-1-yl)methoxy]imino}(phenyl)methyl]-2-methyl-1,2,4-oxadiazol-5(2H)-one], in data set [3], the chromatographic logP is 1.29.

On to `Cn1c(/C(=N\OCc2nc(C(=O)NC3CCCCC3)cs2)c2ccccc2)noc1=O` [Example 9], for which the “% efficacy” value in data set [1] is given as 79%. Besides, the LogP in data set [2] is 3.43^[a].

`Cn1c(/C(=N\OCc2nc(NC(=O)C(C)(C)C)cs2)c2ccccc2)noc1=O` [Example 11]: in data set [1], the “% efficacy” value is reported as 100%. In addition, the LogP in data set [2] is 3.23^[a].

For the compound `Cn1c(/C(=N\OCc2nc(C#CCCc3ccccc3)cs2)c2ccccc2)noc1=O` [Example 12], in data set [1], the “% efficacy” value amounted to 100%. Moreover, the LogP in data set [2] was 4.30^[a].

With `Cn1oc(=O)nc1/C(=N\OCc1nc(Br)cs1)c1ccccc1` [Example 14, 3-[(Z)-{[(4-bromo-1,3-thiazol-2-yl)methoxy]imino}(phenyl)methyl]-2-methyl-1,2,4-oxadiazol-5(2H)-one], in data set [3], the chromatographic logP came out at 2.6. The “% efficacy” value in data set [1] is 74%.

For the compound `Cc1ccc(C(=O)Nc2csc(CO/N=C(/c3ccccc3)c3noc(=O)n3C)n2)cc1` [Example 17], the Eff. % in data set [4] amounted to 84%. In addition, in data set [1], the “% efficacy” value is 100%. For the same compound, the LogP in data set [2] is 3.34^[a].

Turning to `Cn1c(/C(=N\OCc2nc(NC(=O)Cc3ccccc3)cs2)c2ccccc2)noc1=O` [Example 19], in data set [3], the LogP was 3.21^[a]. The “% efficacy” value in data set [1] amounted to 98%.

Consider `CCCCC#Cc1csc(CO/N=C(/c2ccccc2)c2noc(=O)n2C)n1` [Example 21], for which, in data set [1], the “% efficacy” value is listed as 100%. Also, the LogP in data set [2] is 4.26^[a].

Consider `CCCC#Cc1csc(CO/N=C(/c2ccccc2)c2noc(=O)n2C)n1` [Example 22], for which, in data set [4], the Eff. % is reported as 85%. In addition, in data set [1], the “% efficacy” value is listed as 100%. Besides, in data set [2], the LogP was 3.87^[a].

Turning to `CC(C)C#Cc1csc(CO/N=C(/c2ccccc2)c2noc(=O)n2C)n1` [Example 23], the LogP in data set [3] was 3.86^[a]. Further, the “% efficacy” value in data set [1] was determined as 99%.

Turning to `CCCC/C=C/c1csc(CO/N=C(/c2ccccc2)c2noc(=O)n2C)n1` [Example 24], the “% efficacy” value in data set [1] came out at 98%. Moreover, in data set [2], the LogP was 4.77^[a].

`CCCCC#Cc1csc(CO/N=C(/c2ccccc2)c2noc(=O)[nH]2)n1` [Example 25]: the LogP in data set [2] was 3.39^[a].

Regarding `CCCC#Cc1csc(CO/N=C(/c2ccccc2)c2noc(=O)[nH]2)n1` [Example 26], in data set [2], the LogP was 3.47^[a].

Compound `Cn1c(/C(=N\OCc2nc(NC(=O)C3CCc4ccccc4O3)cs2)c2ccccc2)noc1=O` (stereo not shown) [Example 27] had an Eff. % in data set [4] of 99%. In data set [1], the “% efficacy” value was found to be 92%. The LogP in data set [2] was 3.77^[a].

Regarding `Cn1c(/C(=N\OCc2nc(NC(=O)COc3ccccc3)cs2)c2ccccc2)noc1=O` [Example 28], in data set [1], the “% efficacy” value stood at 73%. Also, the LogP in data set [2] was 3.30^[a].

Regarding `CCCCC/C=C/c1csc(CO/N=C(/c2ccccc2)c2noc(=O)n2C)n1` [Example 30], in data set [1], the “% efficacy” value stood at 97%. For the same compound, the LogP in data set [2] is 5.23^[a].

Consider `Cn1c(/C(=N\OCc2nc(C#CC3CCCCC3)cs2)c2ccccc2)noc1=O` [Example 31], for which the “% efficacy” value in data set [1] amounted to 94%. Further, the LogP in data set [2] was 4.80^[a].

Regarding `O=c1[nH]c(/C(=N\OCc2nc(C#CC3CCCCC3)cs2)c2ccccc2)no1` [Example 32], in data set [2], the LogP was 4.33^[a].

Consider `Cn1c(/C(=N\OCc2nc(NC(=O)COCc3ccccc3)cs2)c2ccccc2)noc1=O` [Example 35], for which, in data set [1], the “% efficacy” value stood at 93%. Moreover, the LogP in data set [2] is 3.45^[a].

For the compound `CCCC(C)C(=O)Nc1csc(CO/N=C(/c2ccccc2)c2noc(=O)n2C)n1` (stereo not shown) [Example 36], in data set [1], the “% efficacy” value is 99%. Moreover, the LogP in data set [2] was 3.45^[a].

Consider `CCCCCC#Cc1csc(CO/N=C(/c2ccccc2)c2noc(=O)n2C)n1` [Example 37], for which the “% efficacy” value in data set [1] is 100%. Further, in data set [2], the LogP was 4.72^[a].

`CC(OCC(=O)Nc1csc(CO/N=C(/c2ccccc2)c2noc(=O)n2C)n1)c1ccccc1` (stereo not shown) [Example 38] had an Eff. % in data set [4] of 96%. In data set [1], the “% efficacy” value was 100%. For the same compound, the LogP in data set [2] was 4.32^[a].

As to `Cn1c(/C(=N\OCc2nc(C#CCc3ccccc3)cs2)c2ccccc2)noc1=O` [Example 39], in data set [1], the “% efficacy” value is reported as 88%. In addition, the LogP in data set [2] is 4.07^[a].

In turn, `CC(Oc1ccccc1)C(=O)Nc1csc(CO/N=C(/c2ccccc2)c2noc(=O)n2C)n1` (stereo not shown) [Example 40] yielded an Eff. % in data set [4] of 99%. In data set [1], the “% efficacy” value was found to be 100%. The LogP in data set [2] is 3.55^[a].

`Cn1c(/C(=N\OCc2nc(/C=C/Cc3ccccc3)cs2)c2ccccc2)noc1=O` [Example 41]: the LogP in data set [2] is 4.39^[a].

For `C=CCOC(=O)Nc1csc(CO/N=C(/c2ccccc2)c2noc(=O)n2C)n1` [Example 42], in data set [2], the LogP is 3.02^[a].

`Cn1oc(=O)nc1/C(=N\OCc1nc(C(=O)NC(C)(C)C)cs1)c1ccccc1` [Example 43]: the LogP in data set [2] is 2.61^[a].

Turning to `N#C/C(=N\OCn1ccc([N+](=O)[O-])n1)c1ccccc1` [Example IV-1, (2Z)-{[(3-nitro-1H-pyrazol-1-yl)methoxy]imino}(phenyl)acetonitrile], the chromatographic logP in data set [3] was found to be 2.9.

With `COC(=O)c1csc(CON=C(C#N)c2ccccc2)n1` [Example IV-2], in data set [2], the LogP is 2.80^[a].

With `N#CC(=NOCc1nc(Br)cs1)c1ccccc1` [Example IV-3, {[(4-bromo-1,3-thiazol-2-yl)methoxy]imino}(phenyl)acetonitrile], the chromatographic logP in data set [3] came to 3.61.

`N#CC(=NOCn1ccc(N)n1)c1ccccc1` [Example IV-4]: the LogP in data set [2] was 1.86^[a].

Regarding `N#CC(=NOCc1nc(C#CCCCc2ccccc2)cs1)c1ccccc1` [Example IV-5], in data set [2], the LogP is 5.19^[a].

For the compound `CCCC#Cc1csc(CON=C(C#N)c2ccccc2)n1` [Example IV-6], the LogP in data set [2] is 4.41^[a].

For the compound `CCCCC#Cc1csc(CON=C(C#N)c2ccccc2)n1` [Example IV-7], the LogP in data set [2] was 4.83^[a].

For the compound `N#CC(=NOCc1nc(C#CC2CC2)cs1)c1ccccc1` [Example IV-8], the LogP in data set [2] was 4.04^[a].

As for `N#CC(=NOCc1nc(C#CC2CCCCC2)cs1)c1ccccc1` [Example IV-9], in data set [2], the LogP was 5.42^[a].

As to `CCCCCC#Cc1csc(CON=C(C#N)c2ccccc2)n1` [Example IV-10], the LogP in data set [2] was 5.27^[a].

Regarding `NC(=NO)C(=NOCn1ccc(N)n1)c1ccccc1` [Example V-1], the LogP in data set [2] is 0.65^[a].

With `NC(=NO)C(=NOCc1nc(Br)cs1)c1ccccc1` [Example V-2], in data set [2], the LogP is 1.86^[a].

For `CCCC#Cc1csc(CON=C(C(N)=NO)c2ccccc2)n1` [Example V-3], the LogP in data set [2] is 2.59^[a].

On to `CCCCC#Cc1csc(CON=C(C(N)=NO)c2ccccc2)n1` [Example V-4], for which the LogP in data set [2] was 2.98^[a].

Regarding `NC(=NO)C(=NOCc1nc(C#CC2CCCCC2)cs1)c1ccccc1` [Example V-5], in data set [2], the LogP is 3.42^[a].

As for `CCCCCC#Cc1csc(CON=C(C(N)=NO)c2ccccc2)n1` [Example V-6], the LogP in data set [2] was 3.37^[a].

On to `CN(O)C(=N)/C(=N\OCn1ccc([N+](=O)[O-])n1)c1ccccc1` [Example VI-1, (2Z)—N-hydroxy-N-methyl-2-{[(3-nitro-1H-pyrazol-1-yl)methoxy]imino}-2-phenylethanimidamide], for which the chromatographic logP in data set [3] is 1.15.

As for `CN(O)C(=N)/C(=N\OCc1nc(Br)cs1)c1ccccc1` [Example VI-2, (2Z)-2-{[(4-bromo-1,3-thiazol-2yl)methoxy]imino}-N-hydroxy-N-methyl-2-phenylethanimidamide], the chromatographic logP in data set [3] came to 1.49.
